Test results: patent US20180022750A1, “6-HYDROXYBENZOFURANYL- AND 6-ALKOXYBENZOFURANYL-SUBSTITUTED IMIDAZOPYRIDAZINES” (BAYER PHARMA AKTIENGESELLSCHAFT, priority 2014, published 2018)
Blank lines part the entries; values can stand above or below the compound they belong to.

Key:
human full-length MKNK1 [1] = target: T1, human full-length MKNK1 (Homo sapiens, UniProt Q9BUB5, T385D); test: MKNK1 kinase high ATP assay (TR-FRET, 2 mM ATP); assay type: biochemical; conditions: ATP 2 mM, 15 min preincubation, GST-MKNK1 (T344D)
T1 construct: GST (Glutathione-S-Transferase) (N); purchased Carna Biosciences 02-145; host or cells: insect cells (baculovirus expression system)
Description: MKNK1-inhibitory activity at high ATP of compounds of the present invention after their preincubation with MKNK1 was quantified employing the TR-FRET-based MKNK1 high ATP assay as described in the following paragraphs.
(§1) A recombinant fusion protein of Glutathione-S-Transferase (GST, N-terminally) and human full-length MKNK1 (amino acids 1-424 and T344D of accession number BAA 19885.1), expressed in insect cells using baculovirus expression system and purified via glutathione sepharose affinity chromatography, was purchased from Carna Biosciences (product no 02-145) and used as enzyme. As substrate for the kinase reaction the biotinylated peptide biotin-Ahx-IKKRKLTRRKSLKG (C-terminus in amide form) was used, which can be purchased e.g. from the company Biosyntan (Berlin-Buch, Germany).
(§2) For the assay 50 nL of a 100fold concentrated solution of the test compound in DMSO was pipetted into a black low volume 384well microtiter plate (Greiner Bio-One, Frickenhausen, Germany), 2 μL of a solution of MKNK1 in aqueous assay buffer [50 mM HEPES pH 7.5, 5 mM magnesium chloride, 1.0 mM dithiothreitol, 0.005% (v/v) Nonidet-P40 (Sigma)] was added and the mixture was incubated for 15 min at 22° C. to allow pre-binding of the test compounds to the enzyme before the start of the kinase reaction. Then the kinase reaction was started by the addition of 3 μL of a solution of adenosine-tri-phosphate (ATP, 3.3 mM=>final conc. in the 5 μL assay volume is 2 mM) and substrate (0.1 μM=>final conc. in the 5 μL assay volume is 0.06 μM) in assay buffer and the resulting mixture was incubated for a reaction time of 30 min at 22° C. The concentration of MKNK1 was adjusted depending of the activity of the enzyme lot and was chosen appropriate to have the assay in the linear range, typical concentrations were in the range of 0.003 μg/mL. The reaction was stopped by the addition of 5 μL of a solution of TR-FRET detection reagents (5 nM streptavidine-XL665 [Cisbio Bioassays, Codolet, France] and 1 nM anti-ribosomal protein S6 (pSer236)-antibody from Invitrogen [#44921G] and 1 nM LANCE EU-W1024 labeled ProteinG [Perkin-Elmer, product no. AD0071]) in an aqueous EDTA-solution (100 mM EDTA, 0.1% (w/v) bovine serum albumin in 50 mM HEPES pH 7.5).
(§3) The resulting mixture was incubated for 1 h at 22° C. to allow the formation of complex between the phosphorylated biotinylated peptide and the detection reagents. Subsequently the amount of phosphorylated substrate was evaluated by measurement of the resonance energy transfer from the Eu-chelate to the streptavidine-XL. Therefore, the fluorescence emissions at 620 nm and 665 nm after excitation at 350 nm were measured in a TR-FRET reader, e.g. a Rubystar (BMG Labtechnologies, Offenburg, Germany) or a Viewlux (Perkin-Elmer). The ratio of the emissions at 665 nm and at […] was taken as the measure for the amount of phosphorylated substrate. The data were normalised (enzyme reaction without inhibitor=0% inhibition, all other assay components but no enzyme=100% inhibition).

human full-length MKNK1 [2] = target: T2, human full-length MKNK1 (Homo sapiens, UniProt Q9BUB5); test: MKNK1 kinase assay (TR-FRET, 10 μM ATP); assay type: biochemical; conditions: ATP 10 μM, 15 min preincubation, GST-MKNK1 (T344D)
T2 construct: GST (Glutathione-S-Transferase) (N); purchased Carna Biosciences 02-145; host or cells: insect cells (baculovirus expression system)
Text: MKNK1-inhibitory activity of compounds of the present invention was quantified employing the MKNK1 TR-FRET assay as described in the following paragraphs.
as §1, with “was used” for “was used,”, “e.g. form” for “e.g. from”
as §2, with “16.7 μM=>final” for “3.3 mM=>final”, “10 μM)” for “2 mM)”, “45” for “30”, “0.05 μg/ml.” for “0.003 μg/mL.”
as §3

T2 sequence (Q9BUB5 1-424 isoform Q9BUB5-2 T344D): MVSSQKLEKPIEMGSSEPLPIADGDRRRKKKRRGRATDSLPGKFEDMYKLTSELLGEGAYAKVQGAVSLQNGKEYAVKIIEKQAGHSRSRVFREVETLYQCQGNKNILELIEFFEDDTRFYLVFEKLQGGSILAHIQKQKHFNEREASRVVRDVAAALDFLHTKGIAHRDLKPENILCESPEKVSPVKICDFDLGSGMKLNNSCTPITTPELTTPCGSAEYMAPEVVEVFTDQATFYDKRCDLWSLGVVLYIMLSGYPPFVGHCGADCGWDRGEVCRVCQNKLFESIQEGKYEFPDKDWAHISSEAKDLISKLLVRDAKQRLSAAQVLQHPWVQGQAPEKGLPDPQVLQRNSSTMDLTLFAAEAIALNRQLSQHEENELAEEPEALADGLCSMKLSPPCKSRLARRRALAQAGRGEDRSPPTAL
T1 sequence (Q9BUB5 1-424 isoform Q9BUB5-2 T344D): as above

Structure (SMILES): COc1ccc2cc(-c3cnc4ccc(OCCCO)nn34)oc2c1 [Example 1, 3-{[3-(6-methoxy-1-benzofuran-2-yl)imidazo[1,2-b]pyridazin-6-yl]oxy}propan-1-ol]
IC50 (human full-length MKNK1 [1]): 2570 nM | IC50 (human full-length MKNK1 [2]): 714 nM

Structure (SMILES): COCCCOc1ccc2ncc(-c3cc4ccc(OC)cc4o3)n2n1 [Example 2, 3-(6-methoxy-1-benzofuran-2-yl)-6-(3-methoxypropoxy)imidazo[1,2-b]-pyridazine]
IC50 (human full-length MKNK1 [1]): 5520 nM | IC50 (human full-length MKNK1 [2]): 864 nM

Structure (SMILES): COc1ccc2cc(-c3cnc4ccc(OCCN)nn34)oc2c1 [Example 3, 2-{[3-(6-methoxy-1-benzofuran-2-yl)imidazo[1,2-b]pyridazin-6-yl]oxy}ethanamine]
IC50 (human full-length MKNK1 [1]): 2550 nM | IC50 (human full-length MKNK1 [2]): 977 nM

Structure (SMILES): C[C@H](CN)Oc1ccc2ncc(-c3cc4ccc(O)cc4o3)n2n1 [Example 4, 2-(6-{[(2R)-1-aminopropan-2-yl]oxy}imidazo[1,2-b]pyridazin-3-yl)-1-benzofuran-6-ol]
IC50 (human full-length MKNK1 [1]): 42.1 nM | IC50 (human full-length MKNK1 [2]): 49.1 nM

Structure (SMILES): CC(=O)NC[C@@H](C)Oc1ccc2ncc(-c3cc4ccc(O)cc4o3)n2n1 [Example 5, N-[(2R)-2-{[3-(6-hydroxy-1-benzofuran-2-yl)imidazo[1,2-b]pyridazin-6-yl]oxy}-propyl]acetamide]
IC50 (human full-length MKNK1 [1]): 37.7 nM | IC50 (human full-length MKNK1 [2]): 40.2 nM

Structure (SMILES): COc1ccc2cc(-c3cnc4ccc(OCCCN)nn34)oc2c1 [Example 6, 3-{[3-(6-methoxy-1-benzofuran-2-yl)imidazo[1,2-b]pyridazin-6-yl]oxy}propan-1-amine]
IC50 (human full-length MKNK1 [1]): 913 nM | IC50 (human full-length MKNK1 [2]): 343 nM

Structure (SMILES): COc1ccc2cc(-c3cnc4ccc(OCC(C)(C)CN(C)C)nn34)oc2c1 [Example 7, 3-{[3-(6-methoxy-1-benzofuran-2-yl)imidazo[1,2-b]pyridazin-6-yl]oxy}-N,N,2,2-tetramethylpropan-1-amine]
IC50 (human full-length MKNK1 [1]): 14800 nM | IC50 (human full-length MKNK1 [2]): 5440 nM

Now from value to compound:

IC50 (human full-length MKNK1 [1]): 798 nM | IC50 (human full-length MKNK1 [2]): 217 nM
Structure (SMILES): COc1ccc2cc(-c3cnc4ccc(OCCCCN)nn34)oc2c1 [Example 8, 4-{[3-(6-methoxy-1-benzofuran-2-yl)imidazo[1,2-b]pyridazin-6-yl]oxy}butan-1-amine]

IC50 (human full-length MKNK1 [1]): 1010 nM | IC50 (human full-length MKNK1 [2]): 434 nM
Structure (SMILES): COc1ccc2cc(-c3cnc4ccc(OCCCCN(C)C)nn34)oc2c1 [Example 9, 4-{[3-(6-methoxy-1-benzofuran-2-yl)imidazo[1,2-b]pyridazin-6-yl]oxy}-N,N-dimethylbutan-1-amine]

IC50 (human full-length MKNK1 [1]): 352 nM | IC50 (human full-length MKNK1 [2]): 127 nM
Structure (SMILES): CCN(CC)CCCC(C)Oc1ccc2ncc(-c3cc4ccc(OC)cc4o3)n2n1 (stereo not drawn) [Example 10, N,N-diethyl-4-{[3-(6-methoxy-1-benzofuran-2-yl)imidazo[1,2-b]pyridazin-6-yl]-oxy}pentan-1-amine]

IC50 (human full-length MKNK1 [1]): 1150 nM | IC50 (human full-length MKNK1 [2]): 664 nM
Structure (SMILES): COc1ccc2cc(-c3cnc4ccc(OCCC5CCCN5C)nn34)oc2c1 (stereo not drawn) [Example 11, 3-(6-methoxy-1-benzofuran-2-yl)-6-[2-(1-methylpyrrolidin-2-yl)ethoxy]imidazo-[1,2-b]pyridazine]

IC50 (human full-length MKNK1 [1]): 2390 nM | IC50 (human full-length MKNK1 [2]): 410 nM
Structure (SMILES): COc1ccc2cc(-c3cnc4ccc(OCCN5CCNC5=O)nn34)oc2c1 [Example 12, 1-(2-{[3-(6-methoxy-1-benzofuran-2-yl)imidazo[1,2-b]pyridazin-6-yl]oxy}ethyl)-imidazolidin-2-one]

IC50 (human full-length MKNK1 [1]): 2130 nM | IC50 (human full-length MKNK1 [2]): 567 nM
Structure (SMILES): COc1ccc2cc(-c3cnc4ccc(OCCCN5CCOCC5)nn34)oc2c1 [Example 13, 3-(6-methoxy-1-benzofuran-2-yl)-6-[3-(morpholin-4-yl)propoxy]imidazo[1,2-b]-pyridazine]

IC50 (human full-length MKNK1 [1]): 3810 nM | IC50 (human full-length MKNK1 [2]): 997 nM
Structure (SMILES): COc1ccc2cc(-c3cnc4ccc(O[C@H](C)CNC(C)=O)nn34)oc2c1 [Example 14, N-[(2R)-2-{[3-(6-methoxy-1-benzofuran-2-yl)imidazo[1,2-b]pyridazin-6-yl]oxy}-propyl]acetamide]

IC50 (human full-length MKNK1 [1]): 2820 nM | IC50 (human full-length MKNK1 [2]): 1320 nM
Structure (SMILES): COc1ccc2cc(-c3cnc4ccc(O[C@H](C)CN)nn34)oc2c1 [Example 15, (2R)-2-{[3-(6-methoxy-1-benzofuran-2-yl)imidazo[1,2-b]pyridazin-6-yl]oxy}-propan-1-amine]
